{"source": "patent US12544431B2", "about": "“Peptides for the treatment of cancer and/or metastasis” (BCN PEPTIDES, S.A., priority 2019, dated 2026)", "key": {"[1]": {"assay": "In vitro stability, half-life in human plasma", "type": "in vitro ADME", "conditions": "90% human plasma, 37° C., RP-HPLC, read-out: t½ (hours) in human plasma (converted)", "method": "The peptides and peptide dimer synthesized and prepared in accordance with Example 1 were dissolved in water at a concentration of 6 mg/mL and warmed up to 37° C.\nHuman plasma was obtained as a lyophilized solid (K3 EDTA Plasma, BBI Solutions, code S112-1), reconstituted with sterile 0.9% sodium chloride solution and stored at −20° C. Human plasma was thawed and incubated at 37° C. before use.\nThe peptides and peptide dimer were incubated in 90% human plasma at 37° C. for different times and then precipitated with two volume equivalents of methanol. The samples were cooled in an acetone-carbon dioxide bath for a few seconds and centrifuged for 12 minutes at 4° C. at approximately 10,000 rpm. The supernatant was filtered with a 0.45 μm PVDF filter and analyzed in triplicate by RP-HPLC using an isocratic method (Eluent A=0.1% TFA in water; Eluent B=0.07% TFA in ACN, Column=Kromasil C8, 100 Å, 5 μm, 250×4.6 mm, Flow=1 mL/min, Wavelength: 220 nm, Injection volume=20 μL, Temperature=60° C.). The disappearance of the compound was determined in relation to the area of the initial time to calculate its half-life."}, "[2]": {"tested_on": "RH30 rhabdomyosarcoma cells", "assay": "Matrigel-coated transwell invasion assay, RH30 cells", "type": "cell-based", "conditions": "% invasive cells vs non-treated control", "method": "(§1) 10^5 RH30 or RD cells were plated in the upper chamber of a Matrigel-coated transwell (Corning) in 0.1 mL medium without FBS. Cells were previously incubated with different concentrations (0 nM, 100 nM, 200 nM, 500 nM and 1000 nM) of the peptides and peptide dimer for 48 hours, being also present in the medium during the cell invasion assay. In the lower chamber, 0.6 mL of medium with FBS was added. Cells were incubated at 37° ° C. for 24 hours.\n(§2) After that, cells were fixed with 4% paraformaldehyde (Sigma) for 10 minutes, followed by washing with PBS. After removal of the Matrigel and remaining cells from the upper face of the membrane with a cotton swab, the cells present on the lower face were stained with a Hoechst dilution (Sigma) and were counted (5 fields for each well) with an inverted fluorescence microscope Nikon with a 10× objective. All experiments were made in triplicate. In Table 6 the % Invasiveness represents the mean percentage of invasive cells with respect to their controls."}, "[3]": {"tested_on": "RD rhabdomyosarcoma cells", "assay": "Matrigel-coated transwell invasion assay, RD cells", "type": "cell-based", "conditions": "% invasive cells vs non-treated control", "method": "as §1, §2"}, "[4]": {"tested_on": "RD rhabdomyosarcoma cells", "assay": "Rhabdomyosarcoma metastatic mice model (RD cells i.v. in tail vein)", "type": "in vivo, SCID/Beige mice", "conditions": "for event-free survival vs vehicle group (in words): 27-week study; for Absence of metastases, number of mice / Absence of metastases, percentage of mice / Presence of metastases (%), percentage of mice / Presence of metastases, number of mice: 27 weeks; for body weight, treated vs vehicle-treated mice (in words): along the 27-week study; for reduction in metastases formation: vs PBS-treated mice", "method": "SCID/Beige female mice aged of 5 weeks were administered subcutaneously (s.c.) at day −1 with the first dose of treatment i.e. the vehicle (PBS, Phosphate buffered saline) or the peptides. On day 0, mice were injected intravenously (i.v.) in the tail vein with 2×10^6 RD rhabdomyosarcoma cells.\nBody weight was evaluated twice per week for 27 weeks. Overall survival and event-free survival were determined. At necropsy, the total number of metastases were quantified and the number of metastases per mice and their localization were also reported."}, "[5]": {"tested_on": "CHLA-90 neuroblastoma cells", "assay": "Transwell invasion assay, CHLA-90 cells", "type": "cell-based", "method": "as §1, §2\n(§3) The transwell assay with CHLA-90 and BE(2)-C cell lines was done following the same conditions detailed for determining the % of invasiveness in rhabdomyosarcoma cells.\n(§4) The transwell assay with neuroblastoma cell lines (CHLA-90, BE(2)-C and SK—N-BE(2)-C)) and breast cancer cell lines (MDA-MB-231 and MDA-MB-468) was performed at the same conditions detailed for determining the % of invasiveness in rhabdomyosarcoma cells."}, "[6]": {"tested_on": "BE(2)-C neuroblastoma cells", "assay": "Transwell invasion assay, BE(2)-C cells", "type": "cell-based", "method": "as §1, §2, §3, §4"}, "[7]": {"conditions": "500 nM peptide, listed as SEQ ID NO: 6—NH2"}, "[8]": {"conditions": "0.5 mg/kg s.c. three times per week"}, "[9]": {"conditions": "2 mg/kg s.c. three times per week"}}, "note": "Entries after “also recorded” stand apart in the source; their conditions may differ. Where two headings read alike, the source gives them in different places. Marks after values point to notes of the source that are not given here. *1 amine or outer side, *2 acyl side, *3 side chain or, on linkers, in order; H or OH if unused. Where a SMILES comes first, the peptide text is derived from it. [ ]: non-standard residue; d: D form. The star is where a group is joined. Phe(2,4,6-Me3) = Cc1cc(C)c(C[C@H](N)C(=O)O)c(C)c1; X1 = Cc1cc(C)c(CC(N[*:1])C(=O)[*:2])c(C)c1; pGlu = O=C1CC[C@@H](C(=O)O)N1; Octanoyl = CCCCCCCC(=O)*", "data": [{"compound": "CCCCCCCC(=O)N[C@@H](CCCCN)C(=O)N[C@@H](CCCNC(=N)N)C(=O)N[C@@H](CC(=O)O)C(=O)N[C@@H](CO)C(=O)N[C@@H](CO)C(=O)N[C@@H](CC(N)=O)C(=O)N[C@@H](CO)C(=O)N[C@@H](CCSC)C(=O)N[C@@H](CC(=O)O)C(=O)N[C@@H](CC(C)C)C(=O)N1CCC[C@H]1C(=O)N[C@@H](CCC(=O)O)C(=O)NC(Cc1c(C)cc(C)cc1C)C(=O)N[C@@H](CCCCN)C(N)=O", "note": "(stereo partly drawn) [Octanoyl-SEQ ID NO: 8-NH2, Octanoyl-Lys-Arg-Asp-Ser-Ser-Asn-Ser-Met-Asp-Leu-Pro-Glu-Msa-Lys-NH2] (Octanoyl-KRDSSNSMDLPE[X1]K-NH2)", "values": [{"measurement": "half-life at 0.6 mg/mL", "setting": "[1]", "result": 3.6, "unit": "h"}, {"measurement": "% Invasiveness RH30", "setting": "[2]; 100 nM peptide", "result": 88.38, "unit": "%"}, {"measurement": "% Invasiveness RH30", "setting": "[2]; 200 nM peptide", "result": 99.30, "unit": "%"}, {"measurement": "% Invasiveness RH30", "setting": "[2]; 500 nM peptide", "result": 71.92, "unit": "%"}, {"measurement": "% Invasiveness RH30", "setting": "[2]; 1000 nM peptide", "result": 74.06, "unit": "%"}, {"measurement": "% Invasiveness RD", "setting": "[3]; 100 nM peptide", "result": 75.55, "unit": "%"}, {"measurement": "% Invasiveness RD", "setting": "[3]; 200 nM peptide", "result": 113.22, "unit": "%"}, {"measurement": "% Invasiveness RD", "setting": "[3]; 500 nM peptide", "result": 63.27, "unit": "%"}, {"measurement": "% Invasiveness RD", "setting": "[3]; 1000 nM peptide", "result": "15.89* %"}, {"measurement": "% Invasiveness RD", "setting": "[3]; 1000 nM peptide, listed as Octanoyl-SEQ ID NO: 8—NH2", "result": "significant decrease"}]}, {"compound": "Cc1cc(C)c(C[C@H](NC(=O)[C@H](CCC(=O)O)NC(=O)[C@@H]2CCCN2C(=O)[C@H](CC(C)C)NC(=O)[C@H](CC(=O)O)NC(=O)[C@H](CS)NC(=O)[C@H](CO)NC(=O)[C@H](CC(N)=O)NC(=O)[C@H](CO)NC(=O)[C@H](CO)NC(=O)[C@H](CC(=O)O)NC(=O)[C@H](CCCNC(=N)N)NC(=O)[C@H](CCCCN)NC(=O)[C@@H]2CCC(=O)N2)C(=O)N[C@@H](CCCCN)C(N)=O)c(C)c1", "note": "[SEQ ID NO: 6-NH2, Pyr-Lys-Arg-Asp-Ser-Ser-Asn-Ser-Cys-Asp-Leu-Pro-Glu-Msa-Lys-NH2] ([pGlu]KRDSSNSCDLPE[Phe(2,4,6-Me3)]K-NH2)", "values": [{"measurement": "half-life at 0.6 mg/mL", "setting": "[1]", "result": 0.17, "unit": "h"}, {"measurement": "% Invasiveness RH30", "setting": "[2]; 100 nM peptide", "result": 54.67, "unit": "%"}, {"measurement": "% Invasiveness RH30", "setting": "[2]; 500 nM peptide", "result": "22.77* %"}, {"measurement": "% Invasiveness RH30", "setting": "[2]; [7]", "result": "significant reduction"}, {"measurement": "event-free survival vs vehicle group (in words)", "setting": "[4]; 0.5 mg/kg (lower dose), listed as SEQ ID NO: 6—NH2", "result": "did not show a significant effect"}, {"measurement": "event-free survival vs vehicle group (in words)", "setting": "[4]; 0.5 mg/kg (lower dose), listed as SEQ ID NO:6—NH2", "result": "did not show statistically significant difference"}, {"measurement": "Absence of metastases, number of mice", "setting": "[4]; [8]", "result": 1}, {"measurement": "Absence of metastases, percentage of mice", "setting": "[4]; [8]", "result": 17, "unit": "%"}, {"measurement": "Presence of metastases (%), percentage of mice", "setting": "[4]; [8]", "result": 83, "unit": "%"}, {"measurement": "Presence of metastases, number of mice", "setting": "[4]; [8]", "result": 5}, {"measurement": "body weight, treated vs vehicle-treated mice (in words)", "setting": "[4]; 0.5 mg/kg", "result": "vehicle-treated mice showed a statistically significant lower body weight"}, {"measurement": "reduction in metastases formation", "setting": "[4]; 0.5 mg/kg", "result": "~15", "unit": "%"}, {"measurement": "number of metastases per mouse vs vehicle (in words)", "setting": "[4]; 2 mg/kg (higher dose), at necropsy", "result": "statistically reduced the formation of metastases per mouse; also recorded: efficacious in the reduction of the number of metastases"}, {"measurement": "Absence of metastases, number of mice", "setting": "[4]; [9]", "result": 1}, {"measurement": "Absence of metastases, percentage of mice", "setting": "[4]; [9]", "result": 14, "unit": "%"}, {"measurement": "Presence of metastases (%), percentage of mice", "setting": "[4]; [9]", "result": 86, "unit": "%"}, {"measurement": "Presence of metastases, number of mice", "setting": "[4]; [9]", "result": 6}, {"measurement": "event-free survival vs vehicle group (in words)", "setting": "[4]; 2 mg/kg, Log-rank", "result": "did not show statistically significant difference"}, {"measurement": "body weight, treated vs vehicle-treated mice (in words)", "setting": "[4]; 2 mg/kg", "result": "vehicle-treated mice showed a statistically significant lower body weight"}, {"measurement": "reduction in metastases formation", "setting": "[4]; 2 mg/kg", "result": "~15", "unit": "%"}, {"measurement": "% Invasiveness CHLA-90", "setting": "[5]; 100 nM peptide", "result": 75.90, "unit": "%"}, {"measurement": "% Invasiveness CHLA-90", "setting": "[5]; 200 nM peptide", "result": "55.22* %"}, {"measurement": "% Invasiveness CHLA-90", "setting": "[5]; 200 nM peptide, listed as SEQ ID NO: 6—NH2", "result": "significant reductions"}, {"measurement": "% Invasiveness CHLA-90", "setting": "[5]; 500 nM peptide", "result": "44.58* %"}, {"measurement": "% Invasiveness CHLA-90", "setting": "[5]; 1000 nM peptide", "result": "49.00* %"}, {"measurement": "% Invasiveness BE(2)-C", "setting": "[6]; 100 nM peptide", "result": 60.08, "unit": "%"}, {"measurement": "% Invasiveness BE(2)-C", "setting": "[6]; 200 nM peptide", "result": 59.04, "unit": "%"}, {"measurement": "% Invasiveness BE(2)-C", "setting": "[6]; 500 nM peptide", "result": "31.17* %"}, {"measurement": "% Invasiveness BE(2)-C", "setting": "[6]; [7]", "result": "significant reductions"}, {"measurement": "% Invasiveness BE(2)-C", "setting": "[6]; 1000 nM peptide", "result": "23.54* %"}, {"measurement": "% Invasiveness RD", "setting": "[3]; 100 nM peptide", "result": 39.45, "unit": "%"}, {"measurement": "% Invasiveness RD", "setting": "[3]; 500 nM peptide", "result": 39.98, "unit": "%"}]}, {"compound": "Ac-RDSSNSCDLPEF-NH2 [Ac-SEQ ID NO: 10-NH2, Ac-Arg-Asp-Ser-Ser-Asn-Ser-Cys-Asp-Leu-Pro-Glu-Phe-NH2, reference compound]", "values": [{"measurement": "half-life at 0.6 mg/mL", "setting": "[1]; human plasma (K3 EDTA)", "result": 0.32, "unit": "h"}, {"measurement": "% Invasiveness RH30", "setting": "[2]; 100 nM peptide", "result": 83.91, "unit": "%"}, {"measurement": "% Invasiveness RH30", "setting": "[2]; 500 nM peptide", "result": 113.68, "unit": "%"}, {"measurement": "% Invasiveness RD", "setting": "[3]; 100 nM peptide", "result": 106.77, "unit": "%"}, {"measurement": "% Invasiveness RD", "setting": "[3]; 500 nM peptide", "result": 59.90, "unit": "%"}]}]}
